From PMC6804243, “Small-Molecule Inhibition of UBE2T/FANCL-Mediated Ubiquitylation in the Fanconi Anemia Pathway” (ACS Chemical Biology, 2019) come the findings set out here.

Assay [1] relates to T1, UBE2D1 / GST-RNF8.
T1 construct: His6 (N); made in house; host or cells: E. coli Rosetta (DE3)
Kind of assay: Gel-based ubiquitylation assay, E2 = UBE2D1, E3 = GST-RNF8. It is filed as biochemical. Particulars: 10 min at 37 °C, Western blot. As for the experimental part:
(§1) Figure 2 Gel-based ubiquitylation assays with confirmed HTRF hits. […] Western blots (WB) probed for GST or biotin as labeled. Reactions contained 20 nM His6-UBE1, 50 nM E2, 250 nM GST-E3, 500 nM biotinylated ubiquitin: (a) E2 = UBE2T, E3 = GST-FANCLRING, 30 min of reaction at 37 °C; (b) E2 = UBE2D1, E3 = GST-FANCLRING, 30 min of reaction at 37 °C; and (c) E2 = UBE2D1, E3 = GST-RNF8, 10 min of reaction at 37 °C.
A further ubiquitylation assay was performed with an alternative E3, RNF8, which also plays important roles in the DDR.[14] In contrast to GST-FANCLRING, long polyubiquitin chains were attached to GST-RNF8 by UBE2D1 (Figure 2c).
(§2) Purified protein was concentrated using a Vivaspin-6 concentrator with a 10 kDa MW cut-off (Vivascience) and flash-frozen in small aliquots for storage at […]
(§3) Cy5 labelling of ubiquitin. To a 5 mg/mL solution of recombinant human ubiquitin (Boston Biochem) in 0.1 M NaHCO3 pH 8.3, was added a 4-fold molar excess of Cyanine5 NHS ester (Lumiprobe). The reaction was incubated at 23 °C for 4 hours in the dark. The protein was separated from unreacted dye by passage through a PD-10 desalting column (GE Healthcare) equilibrated with PBS. Purified protein was concentrated using a Vivaspin-6 concentrator with a 3 kDa MW cut-off (Vivascience) and flash-frozen in small aliquots for storage […]
(§4) Homogeneous Time-Resolved Fluorescence (HTRF) Assay. GST-FANCLRING (200 nM) was incubated with anti-GST Tb (CisBio, #61GSTTL) (2.5 ng final) at room temperature for 30 minutes in assay buffer (50 mM Tris-HCl pH 8.0, 1 mM TCEP, 5 mM MgCl2, 0.005% Tween-20). Meanwhile, 10 μL of UBE2T in assay buffer (or assay buffer alone for no enzyme controls) was incubated in a white 384-well plate (Corning) with 20 nL DMSO or compound in DMSO. After 30 minutes, the GST-RINGRING solution was added to an equal volume solution containing His-UBE1 (Boston Biochem) (16 nM), Cy5-ubiquitin (400 nM), ATP (0.8 mM) in assay buffer. 10 μL of this solution was immediately added to each well of the 384 -well plate containing UBE2T or buffer. F inal concentrations: His -UBE1 (4 nM), UBE2T (6 nM), GST -RINGRING (50 nM), Cy5-ubiquitin (100 nM), ATP (0.2 mM), compound (10 or 20 μM) in 0.1 %
(§5) (v/v) DMSO. After a 10 minute incubation at 23 °C, 5 µL of a 50 mM EDTA solution were added to each well to stop the reaction. Signal was measured at λEx 340 nm and λEm 665 nm and 620 nm using a PHERAstar FS plate reader
(§6) (BMG Labtech). A ratio was calculated as [λEm(665)/λEm(620)] × 104 for each well and this was used to determine the percent inhibition for test compounds.
(§7) Gel-based ubiquitylation assays. Assays were carried out in a total volume of 10 µL containing 20 nM His6-UBE1 (Boston Biochem), 50 nM UBE2T, 250 nM GST-E3 and 500 nM biotinylated ubiquitin (Boston Biochem) in buffer (50 […]
(§8) Reaction mixtures were incubated for the indicated time at 37 °C and stopped by the addition of 2X reducing SDS -PAGE sample buffer, separated on NuPAGE Novex 4 –12% Bis/Tris gradient gels (Invitrogen) and visualized by Western blotting using the indicated antibodies (Table S3).
Cell culture. U2OS cells were cultured at 37 °C in a humidified atmosphere and 5% (v/v) CO2 in Dulbecco's Modified Eagle Medium (DMEM; Sigma-Aldrich) supplemented with 10% (v/v) fetal bovine serum (FBS), 100 units/ml of penicillin, […] of streptomycin and 292 μg/mL L-glutamine.
Cell extract preparation and immunoblotting. U2OS cells were lysed in buffer containing 50 mM Tris-HCl pH 7.5, 2% SDS, 10 mM NEM, cocktail protease inhibitor (Roche) and phosphatase inhibitor cocktail followed by sonication 100 µg of extracts were boiled for 5 mins at 95 °C in 5X loading buffer and loaded onto NuPAGE Novex 4–12% Bis/Tris gradient gels
(Invitrogen), or NuPAGE Novex 3-8% Tris/Acetate gradient gels (Invitrogen) for detection of mUb-FANCD2. After separation the gels were transferred to PVDF and the membranes were blocked with Tris-buffered saline containing 0.1% (v/v) Tween-20 (TBST) and 5% (v/v) bovine serum albumin (BSA) and […]

The test system of assay [2] is T2, UBE2T.
T2 construct: His6 (N); made in house; host or cells: E. coli Rosetta (DE3)
Kind of assay: Gel-based ubiquitylation assay (UBE2T/GST-FANCLRING), blot probed for UBE2T. It is filed as biochemical. The conditions noted are these: compound 100 μM; Western blot probed for UBE2T. In general terms: Immunoblotting shows a protein as a band on a membrane.

Assay [3] concerns T3, UBE2T / GST-FANCLRING
T3 construct: the RING domain (residues 275–375) of the E3 FANCL (FANCLRING); His6 (N); made in house; host or cells: E. coli Rosetta (DE3)
Kind of assay: Gel-based ubiquitylation assay, E2 = UBE2T, E3 = GST-FANCLRING
It is filed as biochemical. Particulars: compound 100 μM, 30 min at 37 °C, Western blot.

Assay [4] concerns T4, UBE2D1.
T4 construct: His6 (N); made in house; host or cells: E. coli Rosetta (DE3)
Kind of assay: Gel-based ubiquitylation assay (UBE2D1/GST-FANCLRING), ubiquitylated UBE2D1 species. It is filed as biochemical. The conditions noted are these: E2 = UBE2D1, E3 = GST-FANCLRING; 30 min at 37 °C. The method, then:
as §1
(§9) In order to explore the selectivity of CU1, CU2, CU9, CU10, and CU12, we conducted a counter-screen against other E2 and E3 combinations. Since members of the UBE2D family of E2s are known to ubiquitylate multiple substrates in vitro,[13] a ubiquitylation assay featuring UBE2D1 and GST-FANCLRING was performed. With UBE2D1, multiple ubiquitylated GST-FANCLRING species could be observed (Figure 2b).
as §2
Cy5 labelling of ubiquitin. […]
Homogeneous Time-Resolved Fluorescence (HTRF) Assay. […]
(v/v) DMSO. […] Signal was measured at λEx 340 nm and λEm 665 nm and 620 nm using a PHERAstar FS plate reader
(BMG Labtech). A ratio was calculated as [λEm(665)/λEm(620)] × 104 for each well and this was used to determine the percent inhibition for test compounds. […]

Assay [5] concerns T5, UBE1.
T5 construct: purchased Boston Biochem
Kind of assay: Gel-based ubiquitylation assay (UBE2T/GST-FANCLRING), autoubiquitylation of UBE1. It is filed as biochemical. The conditions noted are these: compound 100 μM; Western blot probed for biotin.

For assay [6], the target named is T6, UBE2T/FANCLRING (ubiquitylation of GST-FANCLRING) (Homo sapiens, UniProt Q9NW38).
T6 sequence (Q9NW38 275-375 limits assumed): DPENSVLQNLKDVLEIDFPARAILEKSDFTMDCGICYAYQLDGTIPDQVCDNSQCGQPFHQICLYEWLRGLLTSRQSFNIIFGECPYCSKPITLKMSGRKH
The assay can be described thus: biochemical.
Excerpt: To identify small-molecule inhibitors of the FA pathway, we developed a high-throughput screen (HTS) compatible assay based on the FA ubiquitylation cascade (see Figure 1a, as well as Figure S1 in the Supporting Information). Given the complexity of the full FA ubiquitylation cascade, we constructed a simplified ubiquitylation reaction that would be robust for HTS purposes yet still provide many relevant protein species for small molecules to interact with. The recombinant protein assay developed used homogeneous time-resolved fluorescence (HTRF) and contained Cy5-labeled ubiquitin, the E1 enzyme UBE1, the E2 enzyme UBE2T, and the RING domain (residues 275–375) of the E3 FANCL (FANCLRING). FANCLRING was used as a surrogate substrate for ubiquitylation in the absence of the FA core and FANCD2/FANCI complexes.
Figure 1 Screening for inhibitors of the FA pathway. (a) Schematic of the HTRF ubiquitylation assay. Ubiquitylation of GST-tagged E3 (FANCLRING) by the E2 (UBE2T) places Cy5-labeled ubiquitin in close proximity to the anti-GST Tb cryptate. Excitation of the Tb cryptate donor results in FRET to the Cy5 acceptor. Simultaneous monitoring of the donor emission (620 nm) and acceptor emission (665 nm) allows for determination of the 665/620 ratio. (b) HTRF screen results showing average inhibition (n = 2) produced by compounds at 20 μM (in-house diversity library; 10 111 compounds) and 10 μM (Selleckchem epigenetic library; 119 compounds). Numbers given in parentheses represent the number of compounds per inhibition threshold.
as §2, §3, §4, §5, §6
Gel-based ubiquitylation assays. Assays were carried out in a total volume of 10 µL containing 20 nM His6-UBE1 (Boston Biochem), 50 nM UBE2T, 250 nM GST-E3 and 500 nM biotinylated ubiquitin (Boston Biochem) in buffer (50

For assay [7], the system named is T7, UBE2D1 / GST-FANCLRING
T7 construct: the RING domain (residues 275–375) of the E3 FANCL (FANCLRING); His6 (N); made in house; host or cells: E. coli Rosetta (DE3)
The assay can be described thus: Gel-based ubiquitylation assay, E2 = UBE2D1, E3 = GST-FANCLRING
It is filed as biochemical. Particulars: 30 min at 37 °C, Western blot. The method, then:
as §1, §9, §2, §3, §4, §5, §6, §7, §8
Cell culture. […]

Structures are written as SMILES. “Also recorded” adds a separate entry of the source. Like-named read-outs stand apart in the source and are kept apart here.

For `O=C(CCc1ccco1)NS(=O)(=O)c1cccc2ncccc12` [CU10], the “ubiquitylation of GST-RNF8 and UBE2D1” value in assay [1] is reported as “appeared to inhibit the ubiquitylation of all species in the assay”. For the same molecule, the “ubiquitylation of UBE2T” value in assay [2] was “prevented the ubiquitylation of UBE2T; also recorded: essentially completely inhibited”. The “ubiquitylation of GST-FANCLRING (mUb-GST-FANCLRING band)” value in assay [3] is “no ubiquitylation of FANCLRING was observed”. For the same molecule, the “formation of ubiquitylated UBE2D1 species” value in assay [4] is reported as “prevented the formation of any ubiquitylated UBE2D1 species”. Besides, the “autoubiquitylation of UBE1” value in assay [5] was “somewhat impaired the autoubiquitylation of UBE1”. The IC50 in assay [6] (library stock, 10-point dose-response, read-out: Primary screen IC50) came to 10.9 µM; in assay [6] (printed beside the structures in Figure S3, read-out: IC50 (Figure S3)) it was 2.1 µM. The LE in assay [6] (ligand efficiency = 1.4(–logIC50)/HAC) was found to be 0.35. Further, in assay [6] (read-out: Primary screen % Inhibition (20 M)), the inhibition at 20 µM amounted to 93.8%. The “ubiquitylation of GST-FANCLRING” value in assay [7] is “essentially abolished the ubiquitylation of GST-FANCLRING”.

Usually IC50 stands for the point on the concentration scale where inhibition reaches its midpoint. As a reminder, the inhibition is how much of the control response was suppressed.
